Data published in patent US10968200B2, “Salts of an LSD1 inhibitor and processes for preparing the same” (priority 2018, dated 2021).
Where a name gives a salt, the structure may show the parent alone.

How the values were obtained:
[1] = target: T1, LSD-1 enzyme (LSD1/KDM1A) (Homo sapiens, UniProt O60341); experiment: LANCE LSD1/KDM1A histone demethylase biochemical assay; details: 1 nM LSD-1 enzyme, 1 hour preincubation at 25° C., Biotin-labeled Histone H3 peptide substrate
T1 construct: purchased ENZO BML-SE544-0050
Description: LANCE LSD1/KDM1A demethylase assay-10 μL of 1 nM LSD-1 enzyme (ENZO BML-SE544-0050) in the assay buffer (50 mM Tris, pH 7.5, 0.01% Tween-20, 25 mM NaCl, 5 mM DTT) were preincubated for 1 hour at 25° C. with 0.8 μL compound/DMSO dotted in black 384 well polystyrene plates. Reactions were started by addition of 10 μL of assay buffer containing 0.4 μM Biotin-labeled Histone H3 peptide substrate: ART-K(Me1)-QTARKSTGGKAPRKQLA-GGK(Biotin) SEQ ID NO:1 (AnaSpec 64355) and incubated for 1 hour at 25° C. Reactions were stopped by addition of 10 μL 1× LANCE Detection Buffer (PerkinElmer CR97-100) supplemented with 1.5 nM Eu-anti-unmodified H3K4 Antibody (PerkinElmer TRF0404), and 225 nM LANCE Ultra Streptavidin (PerkinElmer TRF102) along with 0.9 mM Tranylcypromine-HCl (Millipore 616431). After stopping the reactions plates were incubated for 30 minutes and read on a PHERAstar FS plate reader (BMG Labtech).

[2] = Competitive slurry experiment, stability relationship between Forms II-V; type: physicochemical; details: competitive slurry of Forms II-V in methanol, 23-25° C., 65-75% humidity, XRPD after 4 h and 20 h
Description: The transformation of Compound 1 di-HCl solid forms was evaluated in competitive slurry experiments in methanol at 23-25° C. and 65-75% humidity. The experiments were performed with a mixture of four polymorphs (Form II through Form V), according to the following procedure.
10.0 mg of Compound 1 di-HCl Form II was added to a saturated solution of Compound 1 di-HCl Form II in methanol (1.0 mL) and stirred to give a thin slurry. A mixture of Form III (10.29 mg), Form IV (10.39 mg), and Form V (10.95 mg) were added to the slurry. The mixture was stirred for 4 h at 25° C.
A portion of the mixture was filtered after 4 h. The filtered solids were analyzed by XRPD and determined to be Form II in addition to a minor amount of amorphous solid.
A portion of the mixture was filtered after 20 h. The filtered solids were analyzed by XRPD and determined to be Form II in addition to a minor amount of amorphous solid. The sample was then dried under vacuum at 46-48° C. for 36 h. The dried solids were analyzed by XRPD and determined to be Form II.

| IC50 [1] [nM] | relative stability of solid forms [2] | SMILES |
| --- | --- | --- |
| ≤ 100 |  | N#CCC1(N2CCC(N[C@@H]3C[C@H]3c3ccccc3)CC2)CN(S(N)(=O)=O)C1 [Compound 1, 3-(cyanomethyl)-3-(4-{[(1R,2S)-2-phenylcyclopropyl]amino}piperidin-1-yl)azetidine-1-sulfonamide] |
|  | most stable form | N#CCC1(N2CCC(N[C@@H]3C[C@H]3c3ccccc3)CC2)CN(S(N)(=O)=O)C1 [Form II, 3-(cyanomethyl)-3-(4-{[(1R,2S)-2-phenylcyclopropyl]amino}piperidin-1-yl)azetidine-1-sulfonamide dihydrochloride] |
